Laboratory results taken from US20180289721A1, “FULVESTRANT COMPOSITIONS” (THEMIS MEDICARE LIMITED, priority 2015, published 2018).
In brackets after ≈: the same amount, converted by molar mass. Like-named read-outs stand apart in the source and are kept apart here.

Legend:
[1] = Solubility studies of fulvestrant in solvents, co-solvents, oils and release rate modifiers; assay type: physicochemical; conditions: for solubility: read-out: Fulvestrant solubility achieved
Description: Solubility studies of fulvestrant were performed using various combinations of solvent, co-solvents, oils and release rate modifiers. The resultant data are shown herein below Table 1.

[2] = diethylene glycol monoethyl ether as the sole solvent, reported by Patel; cited from earlier work

C[C@]12CC[C@@H]3c4ccc(O)cc4C[C@@H](CCCCCCCCC[S+]([O-])CCCC(F)(F)C(F)(F)F)[C@H]3[C@@H]1CC[C@@H]2O (stereo partly drawn) [Fulvestrant, 7-alpha-[9-[(4,4,5,5,5-pentafluoropentyl)sulfinyl]nonyl]estra-1,3,5(10)-triene-3,17-beta-diol]
Fulvestrant solubility achieved ([1]; Benzyl alcohol (4 v/v %):Diethylene glycol monoethyl ether (q.s. to 1.7 mL)): 300 mg/1.7 mL
Fulvestrant solubility achieved ([1]; Benzyl alcohol (5 v/v %):Diethylene glycol monoethyl ether (q.s. to 3.3 mL)): 500 mg/3.3 mL
solubility ([1]; N-methyl pyrrolidone, organic solvent or mixture, N-methyl Pyrolidone): 250 mg/mL
solubility ([1]; Polyethylene Glycol 400, organic solvent or mixture, Polyethylene Glycol 400): 11.1 mg/mL
solubility ([1]; TCLS-101 (DMI), organic solvent or mixture, TCLS-101 (DMI)): 30.8 mg/mL
solubility ([1]; oil or lipid, Benzyl alcohol (4 v/v %):Benzyl benzoate (10 w/v %):Castor oil (50 v/v %):Diethylene glycol monoethyl ether (q.s. to 1 mL)): 56 mg/mL
solubility ([1]; oil or lipid, Benzyl alcohol (4 v/v %):Diethylene glycol monoethyl ether (31 v/v %):Castor oil (q.s. to 1 mL)): 30 mg/mL
solubility ([1]; oil or lipid, Benzyl alcohol (4 v/v %):Diethylene glycol monoethyl ether (46 v/v %):Castor oil (q.s. to 1 mL)): 125 mg/mL
solubility ([1]; oil or lipid, Benzyl alcohol (10 v/v %):Castor oil (50 v/v %):Diethylene glycol monoethyl ether (q.s. to 1 mL)): 151 mg/mL
solubility ([1]; organic solvent or mixture, Benzyl alcohol (2 v/v %):Diethylene glycol monoethyl ether (q.s. to 1 mL)): 200 mg/mL
solubility ([1]; organic solvent or mixture, Benzyl alcohol (2 v/v %):MCT oil (1 v/v %):Diethylene glycol monoethyl ether (q.s. to 1 mL)): 200 mg/mL
solubility ([1]; organic solvent or mixture, Benzyl alcohol (4 v/v %):Diethylene glycol monoethyl ether (q.s. to 1.7 mL)): 176 mg/mL
solubility ([1]; organic solvent or mixture, Benzyl alcohol (5 v/v %):Diethylene glycol monoethyl ether (q.s. to 3.3 mL)): 151 mg/mL
solubility [2]: 58.80 mg/mL (≈ 96.9 mM)
